Source: patent publication US11279733B2, “Peptide antibiotics” (priority 2017, dated 2022)
In brackets after ≈: the same amount, converted by molar mass. Where two headings read alike, the source gives them in different places. Positions of bridges follow the written chain, without caps; N, C: chain ends. Non-standard residues stand in square brackets, D forms with d. Residues, ends and D or L forms follow the SMILES beside them. *: point of attachment. dPhe(4-NO2) = N[C@H](Cc1ccc([N+](=O)[O-])cc1)C(=O)O; Decanoyl(3R-OH) = CCCCCCC[C@@H](O)CC(=O)*; dBip = N[C@H](Cc1ccc(-c2ccccc2)cc1)C(=O)O; hPhe = N[C@@H](CCc1ccccc1)C(=O)O; Decanoyl = CCCCCCCCCC(=O)*; dDab = NCC[C@@H](N)C(=O)O; Dab = NCC[C@H](N)C(=O)O

Tests used:
[1] = test system: bacterial strains; assay: Potentiation/synergy antimicrobial assay (checkerboard, FICI) with antibiotics; type: cell-based; conditions: for MIC of antibiotic with OctC4 at concn 0: OctC4 0 μg/mL; for MIC of antibiotic with OctC4 at concn 0.125: OctC4 0.125 μg/mL; for MIC of antibiotic with OctC4 at concn 0.25: OctC4 0.25 μg/mL
Description: Potentiation/synergy antimicrobial assays were conducted in the same manner as the standard MICs described above, with the following modifications. Assays were performed in 384-well non-binding surface plates (NBS; Corning 3460) and in Cation-adjusted Mueller Hinton Broth (CA-MHB; BD, Cat. No. 212322) with a final assay volume of 50 μL once bacteria was added at 5×10^5 CFU/mL. Antibiotics and octapeptin compounds were plated in duplicate as a 2-fold concentration series, in a matrix checkerboard format. The bacterial cell density of the resultant assay plates after 18-20 h incubation at 37° C. was read by optical density 600 nm (OD600) using a Tecan M1000 Pro Spectrophotometer, and analysed for ≥90% growth inhibition compared to the growth control to determine active concentrations. Synergistic effect was calculated based on the fractional inhibitory concentration index (FICI) by the following equation, where synergy is deemed FICI 0.5: […]

[2] = test system: A. baumannii ATCC 19606; conditions: ATCC 19606
Procedure, shortened: (§1)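 Mid-log cultures grown in Mueller Hinton broth at 37° C were tested by 2-fold broth microdilution at 5×10^5 CFU/mL final. Compounds were dissolved in water and tested over a final range of 32 to 0.015 μg/mL.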

[3] = test system: A. baumannii GN_093 PmxR; conditions: GN 093 PmxR
Procedure, shortened: as §1

[4] = test system: E. coli ATCC 25922; conditions: ATCC 25922
Procedure, shortened: as §1

[5] = test system: K. pneumoniae ATCC 13883; conditions: ATCC 13883
Procedure, shortened: as §1

[6] = test system: K. pneumoniae ATCC 700603, MDR; conditions: ATCC 700603
Procedure, shortened: as §1

[7] = test system: K. pneumoniae ATCC BAA-2146, NDM-1 pos; conditions: ATCC BAA-2146
Procedure, shortened: as §1

[8] = test system: K. pneumoniae GN_102 PmxR; conditions: GN 102 PmxR
Procedure, shortened: as §1

[9] = test system: K. pneumoniae GN_106, PmxR; conditions: GN 106, PmxR
Procedure, shortened: as §1

[10] = test system: P. aeruginosa ATCC 27853; conditions: ATCC 27853
Procedure, shortened: as §1

[11] = test system: P. aeruginosa GN_043, PmxR
Procedure, shortened: as §1

[12] = test system: P. aeruginosa GN_105, PmxR; conditions: GN 105, PmxR
Procedure, shortened: as §1

[13] = test system: S. aureus ATCC 25923, MSSA; conditions: ATCC 25923
Procedure, shortened: as §1

Compound | MIC A. baumannii GN_093 PmxR [3] | MIC K. pneumoniae GN_102 PmxR [8] | MIC K. pneumoniae GN_106, PmxR [9] | MIC P. aeruginosa GN_105, PmxR [12] | MIC A. baumannii ATCC 19606 [2] | MIC E. coli ATCC 25922 [4] | MIC K. pneumoniae ATCC 13883 [5] | MIC K. pneumoniae ATCC 700603, MDR [6] | MIC K. pneumoniae ATCC BAA-2146, NDM-1 pos [7] | MIC P. aeruginosa ATCC 27853 [10] | MIC S. aureus ATCC 25923, MSSA [13] | further results
CC(=O)NC[C@H]1CN(c2ccc(N3CCOCC3)c(F)c2)C(=O)O1 [Linezolid, linezolid] |  |  |  |  |  |  |  |  |  |  |  | MIC of antibiotic with OctC4 at concn 0 ([1]; GN_181 E. coli mcr-1): >32 µg/mL; MIC of antibiotic with OctC4 at concn 0.03 ([1]; GN_181 E. coli mcr-1, OctC4 0.03 μg/mL): 8 µg/mL; MIC of antibiotic with OctC4 at concn 0.0625 ([1]; GN_181 E. coli mcr-1, OctC4 0.0625 μg/mL): 4 µg/mL; MIC of antibiotic with OctC4 at concn 0.125 ([1]; GN_181 E. coli mcr-1): 4 µg/mL; MIC of antibiotic with OctC4 at concn 0.25 ([1]; GN_181 E. coli mcr-1): 0.25 µg/mL
arenicin-3 |  |  |  |  |  |  |  |  |  |  |  | MIC of antibiotic with OctC4 at concn 0 ([1]; GN_043 P. aeruginosa PmxR): 2 µg/mL; MIC of antibiotic with OctC4 at concn 0 ([1]; GN_093 A. baumannii XDR/PmxR): 0.5 µg/mL; MIC of antibiotic with OctC4 at concn 0.125 ([1]; GN_093 A. baumannii XDR/PmxR): 0.008 µg/mL; MIC of antibiotic with OctC4 at concn 0.25 ([1]; GN_093 A. baumannii XDR/PmxR): 0.016 µg/mL
CCCCCCC[C@@H](O)CC(=O)N[C@H](Cc1ccc([N+](=O)[O-])cc1)C(=O)N[C@H]1CCNC(=O)[C@H](CC(C)C)NC(=O)[C@H](CCN)NC(=O)[C@H](CCN)NC(=O)[C@H](CC(C)C)NC(=O)[C@@H](Cc2ccccc2)NC(=O)[C@H](CCN)NC1=O [compound 6448, 3(R)OH-nC9CO-D-4NO2Phe-cyc[L-Dab-L-Dab-D-Phe-L-Leu-L-Dab-L-Dab-L-Leu]] ({Decanoyl(3R-OH)}-[dPhe(4-NO2)][Dab][Dab][dF]L[Dab][Dab]L; lactam 2-C) | 8 µg/mL (≈ 7.04 µM) | 8 µg/mL (≈ 7.04 µM) | 4 µg/mL (≈ 3.52 µM) | 8 µg/mL (≈ 7.04 µM) |  |  |  |  |  |  |  | MIC, A. baumannii ATCC 19606 [2]: 8 µg/mL (≈ 7.04 µM); MIC, E. coli ATCC 25922 [4]: 4 µg/mL (≈ 3.52 µM); MIC, K. pneumoniae ATCC 13883 [5]: 4 µg/mL (≈ 3.52 µM); MIC, K. pneumoniae ATCC 700603, MDR [6]: 8 µg/mL (≈ 7.04 µM); MIC, K. pneumoniae ATCC BAA-2146, NDM-1 pos [7]: 8 µg/mL (≈ 7.04 µM); MIC, P. aeruginosa ATCC 27853 [10]: 8 µg/mL (≈ 7.04 µM); MIC P. aeruginosa GN_043, PmxR ([11]; Table 6, polymyxin-resistant): 8 µg/mL (≈ 7.04 µM); MIC, S. aureus ATCC 25923, MSSA [13]: 16 µg/mL (≈ 14.1 µM)
CCCCCCCCCC(=O)N[C@H](CCN)C(=O)N[C@H]1CCNC(=O)[C@H](CC(C)C)NC(=O)[C@H](CCN)NC(=O)[C@H](CCN)NC(=O)[C@H](CC(C)C)NC(=O)[C@@H](Cc2ccccc2)NC(=O)[C@H](CCN)NC1=O [compound 5017, nC9CO-D-Dab-cyc[L-Dab-L-Dab-D-Phe-L-Leu-L-Dab-L-Dab-L-Leu]] (Decanoyl-[dDab][Dab][Dab][dF]L[Dab][Dab]L; lactam 2-C) | 16 µg/mL (≈ 15.6 µM) | 32 µg/mL (≈ 31.1 µM) | 16 µg/mL (≈ 15.6 µM) | 4 µg/mL (≈ 3.89 µM) | 8 µg/mL (≈ 7.78 µM) | 4 µg/mL (≈ 3.89 µM) | 8 µg/mL (≈ 7.78 µM) | 16 µg/mL (≈ 15.6 µM) | 16 µg/mL (≈ 15.6 µM) | 2 µg/mL (≈ 1.94 µM) | 16 µg/mL (≈ 15.6 µM) | MIC P. aeruginosa GN_043, PmxR [11]: 2 µg/mL (≈ 1.94 µM)
CCCCCCC[C@@H](O)CC(=O)N[C@H](Cc1c[nH]c2ccccc12)C(=O)N[C@H]1CCNC(=O)[C@H](CC(C)C)NC(=O)[C@H](CCN)NC(=O)[C@H](CCN)NC(=O)[C@H](Cc2ccccc2)NC(=O)[C@@H](CC(C)C)NC(=O)[C@H](CCN)NC1=O [compound 6426, 3(R)OH-nC9CO-D-Trp-cyc[L-Dab-L-Dab-D-Leu-L-Phe-L-Dab-L-Dab-L-Leu]] ({Decanoyl(3R-OH)}-[dW][Dab][Dab][dL]F[Dab][Dab]L; lactam 2-C) | 16 µg/mL (≈ 14.2 µM) | 4 µg/mL (≈ 3.54 µM) | 4 µg/mL (≈ 3.54 µM) | 8 µg/mL (≈ 7.08 µM) | 16 µg/mL (≈ 14.2 µM) | 4 µg/mL (≈ 3.54 µM) | 8 µg/mL (≈ 7.08 µM) | 8 µg/mL (≈ 7.08 µM) | 8 µg/mL (≈ 7.08 µM) | 8 µg/mL (≈ 7.08 µM) | 8 µg/mL (≈ 7.08 µM) | MIC P. aeruginosa GN_043, PmxR ([11]; P. aeruginosa GN_043, PmxR): 8 µg/mL (≈ 7.08 µM)
CCCCCCC[C@@H](O)CC(=O)N[C@H](CCN)C(=O)N[C@H]1CCNC(=O)[C@H](Cc2c[nH]c3ccccc23)NC(=O)[C@H](CCN)NC(=O)[C@H](CCN)NC(=O)[C@H](CCc2ccccc2)NC(=O)[C@@H](Cc2ccccc2)NC(=O)[C@H](CCN)NC1=O [compound 8834, nC10-3(R)OH-D-Dab-cyc[L-Dab-L-Dab-D-Phe-L-hPhe-L-Dab-L-Dab-L-Trp]] ({Decanoyl(3R-OH)}-[dDab][Dab][Dab][dF][hPhe][Dab][Dab]W; lactam 2-C) | 8 µg/mL (≈ 6.86 µM) | 4 µg/mL (≈ 3.43 µM) | 8 µg/mL (≈ 6.86 µM) | 32 µg/mL (≈ 27.5 µM) | 8 µg/mL (≈ 6.86 µM) | 8 µg/mL (≈ 6.86 µM) | 4 µg/mL (≈ 3.43 µM) | 8 µg/mL (≈ 6.86 µM) | 8 µg/mL (≈ 6.86 µM) | 4 µg/mL (≈ 3.43 µM) | 4 µg/mL (≈ 3.43 µM) | MIC P. aeruginosa GN_043, PmxR ([11]; polymyxin-resistant): 4 µg/mL (≈ 3.43 µM)
CCCCCCC[C@@H](O)CC(=O)N[C@@H](CCN)C(=O)N[C@@H]1CCNC(=O)[C@H](CC(C)C)NC(=O)[C@H](CCN)NC(=O)[C@H](CCN)NC(=O)[C@H](CC(C)C)NC(=O)[C@@H](Cc2ccc(-c3ccccc3)cc2)NC(=O)[C@H](CCN)NC1=O [compound 6661, 3(R)OH-nC9CO-L-Dab-cyc[D-Dab-L-Dab-D-Bip-L-Leu-L-Dab-L-Dab-L-Leu]] ({Decanoyl(3R-OH)}-[Dab][dDab][Dab][dBip]L[Dab][Dab]L; lactam 2-C) | >32 µg/mL | >32 µg/mL | >32 µg/mL | 8 µg/mL (≈ 7.14 µM) | >32 µg/mL | 32 µg/mL (≈ 28.6 µM) | 32 µg/mL (≈ 28.6 µM) | 32 µg/mL (≈ 28.6 µM) | 32 µg/mL (≈ 28.6 µM) | 8 µg/mL (≈ 7.14 µM) | 8 µg/mL (≈ 7.14 µM) | MIC P. aeruginosa GN_043, PmxR ([11]; P. aeruginosa GN_043, PmxR): >32 µg/mL
